Measurements: US20230101768A1, “METHOD TO TREAT MANGANESE TOXICITY AND MANGANESE-INDUCED PA[…] HUMANS” (priority 2021, published 2023)
Where two headings read alike, the source gives them in different places.

Columns and labels:
[1] = test system: HIF1α; format: cell-based, human
Description: (§1) qRT-PCR analyses in HepG2 cells stably infected with scramble shRNAs or shRNAs targeting HIF1α, HIF2α, HIF1β/ARNT or HIF1α+HIF2α. Expression in respective scramble shRNA control cells was normalized to 1. Scramble shRNA sequence 1 was used for the HIF1α shRNA assay (single knockdown). Scramble shRNA sequence 2 was used for the other experiments, including HIF1α+HIF2α double knockdown. N=3-4. Except HIF1β/ARNT shRNAs, p<0.05 by t-test in comparison with respective scramble shRNA. […] N.S.—not significant.
(§2) ShRNA sequences targeting HIF1α, HIF2α, or HIF1β/ARNT (Table 3) were obtained from the MISSION® TRC shRNA library (Sigma) or were previously described (103). Scramble shRNA sequence 1 was from the MISSION® TRC shRNA library while scramble shRNA sequence 2 (Table 3) has been previously reported (104). These sequences were sub-cloned into the lentivirus transfer plasmid pLKO.1 vector (Addgene #8453).
(§3) Lentiviral infections. Stable cells were generated by lentivirus infection essentially as described by us previously (49, 98). Briefly, lentivirus was produced in HEK293T cells by co-transfecting transfer plasmids described above with plasmids coding for a third generation packing system that is routinely used (pRSV-Rev, pRRE, and pCMV-VSVG) (49, 98). Viral supernatants were collected 40-48 h post-transfection. […]
(§4) Quantitative RT-PCR assays.

[2] = test system: HIF2α; format: cell-based, human
Description: as §1, §2, §3, §4

[3] = test system: SLC30A10; format: in vivo, mice; conditions: oral manganese ~15 mg/kg daily from birth until 8 weeks
Description: (§5) A well-characterized drinking water-based manganese exposure regimen was used to model human environmental manganese exposure by providing mice with ˜50 mg manganeseCl2.4H2O/kg body weight daily (˜15 mg absolute manganese/kg per day) from birth until 8 weeks of age. This, and related similar, dosing regimens: 1) approximate the increase in manganese exposure in humans consuming well water contaminated with 1.5 mg manganese/L, which is the median well water concentration associated with neurological deficits in children; 2) increase brain manganese levels by ˜2-3 fold, similar to human patients; 3) produce measurable neurobehavioral deficits without overt toxicity; and 4) model exposure to manganese in developmentally-sensitive early-life and adolescent periods (11). Pre-weaning manganese was delivered by pipette directly into the mouth, and post-weaning manganese was delivered in drinking water using procedures described in detail in ref. (11). In brief, pre-weaning dosing was adjusted to each animal's body weight. For this, a stock solution of 69.2 mg absolute manganese/ml prepared in milliQ water was diluted in milliQ water containing 2.5% (wt/vol) of the natural sweetener Stevia (to facilitate intake by pups), and the required manganese amount (0.2 μl manganese stock/g body weight) was delivered in a dose of ˜5-10 μl/animal. For post-weaning exposure, a 27.7 mg absolute manganese/ml stock solution was prepared in water and diluted to 0.069 mg absolute manganese/ml in drinking water, which provided mice with ˜15 mg absolute manganese/kg per day based on a daily water intake of ˜2-5 ml/mouse depending on age.
(§6) To assay for the protective effect of roxadustat, animals were exposed to roxadustat or vehicle with or without manganese in drinking water from ˜4 weeks of age. Treatment lasted for 4 weeks from initiation. Roxadustat (Selleckchem) was prepared as a 50 mg/ml stock solution in DMSO, then diluted to 1 mg/ml in sterile phosphate buffered saline (PBS), and delivered by daily i.p. injection at 10 mg/kg. Vehicle was 2% DMSO in PBS. For this experiment, drinking water manganese levels were adjusted to 0.138 mg absolute manganese/ml so that animals received ˜30 mg absolute manganese/kg daily. A higher level of manganese was used because exposure was initiated after weaning, which was necessary because daily i.p. injections for roxadustat delivery were not possible in the pre-weaning period.
(§7) Animals were euthanized using carbon dioxide and tissue dissected for qRT-PCR or ICPMS analyses as described by us previously (50).
(§8) Quantitative RT-PCR assays. RNA extraction from HepG2 cells and mouse tissue, reverse transcription to cDNA, and qRT-PCR analyses were performed as described by us previously (47, 50). For analyses of mouse brain samples, a part of the midbrain, including the basal ganglia, was used. Transcript levels were quantified using the ΔΔCT method with 18S (in mice) or TBP (in HepG2 cells) as the internal control, also as described by us previously (47, 50).

[4] = test system: C57BL/6J mice; conditions: C57BL/6J mice, open field 6-15 min interval, ~30 mg manganese/kg daily in drinking water, 4 weeks
Description: as §6
Open-field assays for neurobehavior assessment. Open-field analyses were performed as described in a recent publication (51).

[5] = test system: SLC39A8; conditions: oral manganese ~15 mg/kg daily from birth until 8 weeks
Description: as §5, §7, §8

[6] = test system: SLC39A14; conditions: oral manganese ~15 mg/kg daily from birth until 8 weeks
Description: as §5, §7, §8

## O.O.O.O.[Cl][Mn][Cl] [manganese, manganeseCl2.4H2O]
[1]
  HIF1α mRNA levels after manganese: not elevated
[2]
  HIF2α mRNA levels after manganese: not elevated
[3]; 129S4/SvJaeJ mice
  SLC30A10 levels in intestines: not
  SLC30A10 levels in liver: increased
[3]; C57BL/6J mice
  SLC30A10 levels in intestines: increase
  SLC30A10 levels in liver: not
[3]; either strain (129S4/SvJaeJ, C57BL/6J)
  Expression of SLC30A10 in the brain: did not impact
[4]
  Vertical (rearing) movement versus vehicle-treated controls, manganese-only: reduced
[5]; 129S4/SvJaeJ mice
  Hepatic and brain SLC39A8 levels: elevated
[5]; either strain
  Intestinal SLC39A8 levels: did not change
[6]; 129S4/SvJaeJ mice
  Hepatic and brain SLC39A14 levels: elevated
[6]; C57BL/6J mice
  Intestinal SLC39A14 levels: enhanced
